In one test the target is FKBP12 (Homo sapiens (Human), UniProt P62942). The test is described as follows: SPR assay to determine binding affinity to FKBP12 (direct binding). As to conditions: immobilized biotinylated avi-FKBP12. In general terms: SPR reads the build-up and loss of mass on a sensor chip optically.
For test [1], the target named is FKBP51 / FRB ternary complex (Homo sapiens (Human), UniProt P42345+Q13451). The experiment in a line: SPR assay to characterize ternary complex formation with FKBP51 (FRB binding to rapalog-saturated FKBP51). As to conditions: FRB dilutions with 100 nM rapalog on immobilized FKBP51. An outline of the steps: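 SPR with biotinylated avi-FKBP51 on streptavidin chip (~200 RU); FRB (0.00011-20 μM, 3-fold series) injected with 100 nM rapalog, A-B-A mode keeping FKBP saturated with rapalog.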

The target in test [2] is FKBP12 / FRB ternary complex (Homo sapiens (Human), UniProt P42345+P62942). The test is described as follows: SPR assay to characterize ternary complex formation with FKBP12 (FRB binding to rapalog-saturated FKBP12). As to conditions: FRB dilutions with 100 nM rapalog on immobilized FKBP12. In outline:
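Biotinylated avi-FKBP12 immobilized (~100 RU) on streptavidin chip; A-B-A injections kept FKBP12 saturated with 100 nM rapalog while FRB (0.00011–20 μM, 3-fold, 12 points) was injected 120 s.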

For the next test, the target named is mTORC2 (Homo sapiens (Human), UniProt P42345+P62942). The test is described as follows: mTORC2 inhibition, AlphaLISA of Phospho-AKT (pAKT pS473) in PC3 cells. Format: cell-based. (In general: Alpha assays give light when donor and acceptor beads are brought close together.)
In the next test the target is FKBP51 (Homo sapiens (Human), UniProt Q13451). The experiment in a line: SPR assay to determine binding affinity to FKBP51 (direct binding). The conditions noted are these: immobilized biotinylated avi-FKBP51. In outline: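 Biotinylated avi-FKBP51 captured on streptavidin chip to about 2000 RU. Compounds injected at 0.5-1000 nM (8 points, 3-fold) for 120 s contact and 3600 s dissociation in 50 mM HEPES pH 7.5, 150 mM NaCl, 2 mM MgCl2, 1 mM DTT, 0.05% Tween-20, 1% DMSO.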
Sequence of FKBP51 (Q13451 whole entry): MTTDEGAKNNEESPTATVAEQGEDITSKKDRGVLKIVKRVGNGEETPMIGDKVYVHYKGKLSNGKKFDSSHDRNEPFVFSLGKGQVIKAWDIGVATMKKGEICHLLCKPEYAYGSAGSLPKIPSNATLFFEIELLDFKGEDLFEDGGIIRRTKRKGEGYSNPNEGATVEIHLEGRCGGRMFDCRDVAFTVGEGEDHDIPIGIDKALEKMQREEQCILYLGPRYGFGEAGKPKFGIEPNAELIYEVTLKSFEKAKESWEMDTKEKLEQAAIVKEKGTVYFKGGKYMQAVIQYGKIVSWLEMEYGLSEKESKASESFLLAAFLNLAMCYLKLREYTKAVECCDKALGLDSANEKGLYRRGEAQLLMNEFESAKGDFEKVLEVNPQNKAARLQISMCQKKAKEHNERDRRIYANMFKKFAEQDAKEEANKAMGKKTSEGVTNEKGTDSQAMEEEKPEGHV

The target of another test is mTORC1 (Homo sapiens (Human), UniProt P42345+P62942). The test is described as follows: mTORC1 inhibition, AlphaLISA of Phospho-p70 S6 kinase (p70S6K pT389) in PC-3 cells. Format: cell-based. As to conditions: inhibition of p70S6K pT389 levels.

Sequence of FKBP12 (P62942 whole entry): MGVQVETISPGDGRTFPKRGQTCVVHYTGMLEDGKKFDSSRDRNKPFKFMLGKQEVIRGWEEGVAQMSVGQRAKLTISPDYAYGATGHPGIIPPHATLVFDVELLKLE

As usually defined, the Kd is the constant that tells how readily two partners part at equilibrium. Low readings indicate tighter binding, high ones weaker binding. For orientation: IC50 means the midpoint of a concentration-inhibition curve. For the compound `CCOC(=O)COC1CCC(CC(C)C2CC(=O)C(C)C=C(C)C(O)C(OC)C(=O)C(C)CC(C)C=CC=CC=C(C)C(OCCOC)CC3CCC(C)C(O)(O3)C(=O)C(=O)N3CCCCC3C(=O)O2)CC1OC` (stereo not drawn) [Compound 56], the Kd at FKBP12 was less than 0.0003 µM; in test [1], more than 0.8 µM; in test [2], 0.3 to 0.8 µM; at FKBP51, more than 0.1 µM. For the same compound, the “mTORC2 % inhibition at 1 uM” value at mTORC2 was “C (C≥40% and less than 60% inhibition at 1 uM)”. This compound also displayed an IC50 against mTORC1 of 0.0001 to 0.0008 µM.
For `COCCOC1CC2CCC(C)C(O)(O2)C(=O)C(=O)N2CCCCC2C(=O)OC(C(C)CC2CCC(OCC(=O)O)C(OC)C2)CC(=O)C(C)C=C(C)C(O)C(OC)C(=O)C(C)CC(C)C=CC=CC=C1C` (stereo not drawn) [Compound 57], the Kd on FKBP12 was more than 0.001 µM; in test [1], more than 0.8 µM; in test [2], 0.3 to 0.8 µM; at FKBP51, 0.01 to 0.1 µM. Besides, at mTORC2, the “mTORC2 % inhibition at 1 uM” value was “B (B>20% and less than 40% inhibition at 1 uM)”. At mTORC1, this compound yielded an IC50 of more than 0.0008 µM.
On to `COC1C[C@H]2CC[C@H](C)[C@](O)(O2)C(=O)C(=O)N(C)C(C)C(=O)OC([C@H](C)C[C@@H]2CC[C@@H](OCCCS(C)(=O)=O)[C@H](OC)C2)CC(=O)C(C)/C=C(\C)C(O)C(OC)C(=O)C(C)CC/C=C/C=C/C=C/1C` (stereo partly drawn) [Compound 59], for which the Kd on FKBP12 is less than 0.0003 µM; in test [1] it was 0.3 to 0.8 µM; in test [2], less than 0.3 µM; at FKBP51, 0.01 to 0.1 µM. Further, the “mTORC2 % inhibition at 1 uM” value at mTORC2 was “D (D≥60% inhibition at 1 uM)”. The same compound gave an IC50 at mTORC1 of less than 0.0001 µM.
On to `CO[C@@H]1C[C@H](C[C@@H](C)[C@@H]2CC(=O)[C@H](C)/C=C(\C)[C@@H](O)[C@@H](OC)C(=O)[C@H](C)C[C@H](C)/C=C/C=C/C=C(\C)[C@@H](OCC3CC3)C[C@@H]3CC[C@@H](C)[C@@](O)(O3)C(=O)C(=O)N3CCCC[C@H]3C(=O)O2)CC[C@H]1OCCCS(C)(=O)=O` [Compound 60], for which the Kd at FKBP12 was more than 0.001 µM; in test [1] it was more than 0.8 µM; in test [2], less than 0.3 µM; at FKBP51, more than 0.1 µM. Besides, at mTORC2, the “mTORC2 % inhibition at 1 uM” value was “B (B>20% and less than 40% inhibition at 1 uM)”. At mTORC1, this compound registered an IC50 of 0.0001 to 0.0008 µM.
On to `COCCO[C@H]1C[C@@H]2CC[C@@H](C)[C@@](O)(O2)C(=O)C(=O)N2CCCC[C@H]2C(=O)O[C@H]([C@H](C)C[C@@H]2CC[C@@H](OCCCS(C)(=O)=O)[C@H](OC)C2)CC(=O)[C@H](C)/C=C(\C)[C@@H](O)[C@@H](OC)C(=O)[C@H](C)C[C@H](C)/C=C/C=C/C=C/1C` [Compound 61], for which the Kd at FKBP12 was less than 0.0003 µM; in test [1], more than 0.8 µM; in test [2] it was less than 0.3 µM; at FKBP51, more than 0.1 µM. In addition, the “mTORC2 % inhibition at 1 uM” value on mTORC2 is “B (B>20% and less than 40% inhibition at 1 uM)”. The same compound yielded an IC50 against mTORC1 of less than 0.0001 µM.
Take `CO[C@@H]1C[C@H](C[C@@H](C)[C@@H]2CC(=O)[C@H](C)/C=C(\C)[C@@H](O)[C@@H](OC)C(=O)[C@H](C)C[C@H](C)/C=C/C=C/C=C(\C)[C@@H](OCC3CCC3)C[C@@H]3CC[C@@H](C)[C@@](O)(O3)C(=O)C(=O)N3CCCC[C@H]3C(=O)O2)CC[C@H]1OCCCS(C)(=O)=O` [Compound 62]: the Kd at FKBP12 was more than 0.001 µM; in test [1], more than 0.8 µM; in test [2], less than 0.3 µM; on FKBP51, more than 0.1 µM. In addition, at mTORC2, the “mTORC2 % inhibition at 1 uM” value is “C (C≥40% and less than 60% inhibition at 1 uM)”. At mTORC1, this compound had an IC50 of more than 0.0008 µM.
On to `CO[C@@H]1C[C@H](C[C@@H](C)[C@@H]2CC(=O)[C@H](C)/C=C(\C)[C@@H](O)[C@@H](OC)C(=O)[C@H](C)C[C@H](C)/C=C/C=C/C=C(\C)[C@@H](OC3CC3)C[C@@H]3CC[C@@H](C)[C@@](O)(O3)C(=O)C(=O)N3CCCC[C@H]3C(=O)O2)CC[C@H]1OCCCS(C)(=O)=O` [Compound 64], for which the Kd at FKBP12 is 0.0003 to 0.001 µM; in test [1], less than 0.3 µM; in test [2] it was less than 0.3 µM; at FKBP51 it was more than 0.1 µM. Also, the “mTORC2 % inhibition at 1 uM” value on mTORC2 is “C (C≥40% and less than 60% inhibition at 1 uM)”. Moreover, the IC50 on mTORC1 lay in the range of 0.0001 to 0.0008 µM.
Take `COC1C(=O)C(C)CC/C=C/C=C/C=C(\C)C(CCO)C[C@H]2CC[C@H](C)[C@](O)(O2)C(=O)C(=O)N(C)C(C)C(=O)OC([C@H](C)C[C@@H]2CC[C@@H](OCCCS(C)(=O)=O)[C@H](OC)C2)CC(=O)C(C)/C=C(\C)C1O` (stereo partly drawn) [Compound 67]: the Kd on FKBP12 is less than 0.0003 µM; in test [1] it was more than 0.8 µM; in test [2], 0.3 to 0.8 µM; at FKBP51, 0.01 to 0.1 µM. Also, the “mTORC2 % inhibition at 1 uM” value on mTORC2 was “B (B>20% and less than 40% inhibition at 1 uM)”. Also, the IC50 against mTORC1 lay in the range of 0.0001 to 0.0008 µM.
On to `CO[C@@H]1C[C@H](C[C@@H](C)[C@@H]2CC(=O)[C@H](C)/C=C(\C)[C@@H](O)[C@@H](OC)C(=O)[C@H](C)C[C@H](C)/C=C/C=C/C=C(\C)[C@@H](OCCCO)C[C@@H]3CC[C@@H](C)[C@@](O)(O3)C(=O)C(=O)N3CCCC[C@H]3C(=O)O2)CC[C@H]1OCCCS(C)(=O)=O` [Compound 68], for which the Kd at FKBP12 was less than 0.0003 µM; in test [1], more than 0.8 µM; in test [2], less than 0.3 µM; on FKBP51, 0.01 to 0.1 µM. On mTORC2, the “mTORC2 % inhibition at 1 uM” value is “C (C≥40% and less than 60% inhibition at 1 uM)”. On mTORC1, the IC50 is less than 0.0001 µM.
Take `CO[C@@H]1C[C@H](C[C@@H](C)[C@@H]2CC(=O)[C@H](C)/C=C(\C)[C@@H](O)[C@@H](OC)C(=O)[C@H](C)C[C@H](C)/C=C/C=C/C=C(\C)[C@H](OCCCO)C[C@@H]3CC[C@@H](C)[C@@](O)(O3)C(=O)C(=O)N3CCCC[C@H]3C(=O)O2)CC[C@H]1OCCCS(C)(=O)=O` [Compound 69]: the Kd on FKBP12 was 0.0003 to 0.001 µM; in test [1], more than 0.8 µM; in test [2] it was 0.3 to 0.8 µM; on FKBP51 it was 0.01 to 0.1 µM. For the same compound, the “mTORC2 % inhibition at 1 uM” value on mTORC2 was “B (B>20% and less than 40% inhibition at 1 uM)”. The compound further showed an IC50 on mTORC1 of 0.0001 to 0.0008 µM.

Source of the values: US11603377B2, “MTORC1 modulators and uses thereof” (Aeovian Pharmaceuticals, Inc., priority 2020, dated 2023).
